{"source": "patent US20090005435A1", "about": "“Novel Compounds, Pharmaceutical Compositions Containing Same, and Methods of Use for Same” (priority 2004, published 2009)", "key": {"Weight loss screen": {"assay": "Weight loss screen", "format": "in vivo, Balb/C mice", "settings": "60 mg/kg", "experimental": "Weight Loss Screen for Novel FAS Inhibitors Balb/C mice (Jackson Labs) are utilized for the initial weight loss screening. Animals are housed in temperature and 12 hour day/night cycle rooms and fed mouse chow and water ad lib. Three mice are utilized for each compound tested with vehicle controls in triplicate per experiment. For the experiments, mice are housed separately for each compound tested three mice to a cage. Compounds are diluted in DMSO at 10 mg/ml and mice are injected intraperitoneally with 60 mg/kg in approximately 100 μl of DMSO or with vehicle alone. Mice are observed and weighed daily; average weights and standard errors are computed with Excel (Microsoft). The experiment continues until treated animals reach their pretreatment weights. Select compounds are tested in animals housed in metabolic cages. Dosing of animals are identical to the screening experiments with three animals to a single metabolic cage. Animal weights, water and food consumption, and urine and feces production are measured daily."}, "(O)": {"test_system": "(O)", "assay": "XTT cytotoxicity assay (O)", "format": "cell-based", "settings": "read-out: XTT (IC50) (O)", "experimental": "(§1) The XTT assay is a non-radioactive alternative for the [^51Cr] release cytotoxicity assay. XTT is a tetrazolium salt that is reduced to a formazan dye only by metabolically active, viable cells. The reduction of XTT is measured spectrophotometrically as OD490-OD650.\n(§2) After 72 hours of incubation, cells are incubated for 4 hours with the XTT reagent as per manufacturer's instructions (Cell Proliferation Kit II (XTT) Roche). Plates are read at OD490 and OD650 on a Molecular Devices SpectraMax Plus Spectrophotometer. Three wells containing the XTT reagent without cells serve as the plate blank. XTT data are reported as OD490-OD650. Averages and standard error of the mean are computed using SOFTmax Pro software ([…]).\n(§3) The IC50 for the compounds is defined as the concentration of drug leading to a 50% reduction in OD490-OD650 compared to controls. The OD490-OD650 are computed by the SOFTmax PRO software (Molecular Devices) for each compound concentration. IC50 is calculated by linear regression, plotting the FAS activity as percent of control versus drug concentrations. Linear regression, best-fit line, r^2, and 95% confidence intervals are determined using Prism Version 3.0 (Graph Pad Software)."}, "fatty acid oxidation": {"test_system": "fatty acid oxidation", "assay": "β-Oxidation assay, isolation of acid soluble products", "format": "cell-based", "design": "Beta Oxidation: unit not given here", "settings": "for FAO MAx: maximal fatty acid oxidation, at the concentration given under E32", "experimental": "β-Oxidation Assay—Isolation of Acid Soluble Products A 24 well plate with 1 ml per well was prepared with 2.5×10^5 cells/well. The cells were incubated O/N. The next day, a solubilized palmitate solution was prepared. 50 μls of (1-^14C) Palmitic acid was added to a 2 ml centrifuge tube and dried under nitrogen gas. 2 mls of α-CD (α-Cyclodextran)-10 mg/ml in 10 mM Tris were added. This solution was incubated in a 37° C. water bath for 30 minutes. A hot mix was prepared by adding 25 μls of this solution to 2.5 μls of 200 μM Carnitine and 222.5 μls of serum free medium that is used for cells. The cells were then treated with the test compound in triplicate, and incubated at 37° C. for 60 minutes. The medium was removed and 250 μls of the hot mix were added. The test compound was added again, and further incubated at 37° C. for 60 minutes. The reaction was stopped with 50 μls of 2.6 N HClO4. The contents of the plate were transferred to a 1.5 ml centrifuge tube, and 50 μls of 4N KOH were then added, and the tube incubated in a 60° C. water bath for 30 min. Sodium acetate (1M, 75 μls) and sulfuric acid (3N, 50 μls) were added to the solution and vortexed. The tube was spun for 7 minutes at 1000 rpm at room temperature. A portion (225 μls) was removed, and the following were added (vortex after each addition, twice at the end): 938 μls of 1:1 Chloroform:Methanol; 468 μls of Chloroform; 281 μls distilled Water. The tubes were spun at 1000 rpm for 5 minutes. The upper phase was removed into a large glass scintillation vial and 5 mls of Budget solvent (scintillation liquid) was added. The tubes were well vortexed. Finally, C14 was counted for one minute."}, "[1]": {"test_system": "MCF-7 human breast cancer cells", "assay": "XTT cytotoxicity assay (M)", "format": "cell-based", "settings": "MCF7", "experimental": "as §1\nTo measure the cytotoxicity of specific compounds against cancer cells, 9×10^3 MCF-7 human breast cancer cells, obtained from the American Type Culture Collection are plated per well in 96 well plates in DMEM medium with 10% fetal bovine serum, insulin, penicillin, and streptomycin. Following overnight culture at 37° C. and 5% CO2, the compounds to be tested, dissolved in DMSO, are added to the wells in 1 μl volume at the following concentrations: 80, 40, 20, 10, 5, 2.5, 1.25, and 0.625 μg/ml in triplicate. Additional concentrations are tested if required. 1 μl of DMSO is added to triplicate wells are the vehicle control. C75 is run at 40, 20, […], and 5 μg/ml in triplicate as positive controls.\nas §2, §3"}}, "note": "Several values for one entry are separate records, joined by “and”; a condition that tells them apart may be missing. Equal values may be shown once."}
{"molecule": "CCCCCCCCCCC1(C)SC(=O)C(C)(C)C1=O", "note": "(stereo not drawn) [Compound 12, 3,3,5-Trimethyl-5-decyl-thiophene-2,4-dione]", "values": [{"measurement": "Weight Loss", "setting": "Weight loss screen; day 2", "value": "60 mg/kg: 9.0% (day 2)"}, {"measurement": "IC50", "setting": "(O)", "value": "> 80", "unit": "µg/mL"}, {"measurement": "FAO MAx, concentration at maximum", "setting": "fatty acid oxidation", "value": 1.56, "unit": "µg/mL"}, {"measurement": "FAO SC 150", "setting": "fatty acid oxidation", "value": 1.4, "unit": "µg/mL"}, {"measurement": "Beta Oxidation", "setting": "fatty acid oxidation; 0.097 ug/ml", "value": 100}, {"measurement": "Beta Oxidation", "setting": "fatty acid oxidation; 0.39 ug/ml", "value": 120}, {"measurement": "Beta Oxidation", "setting": "fatty acid oxidation; 1.56 ug/ml", "value": 154}, {"measurement": "Beta Oxidation", "setting": "fatty acid oxidation; 6.25 ug/ml", "value": 141}, {"measurement": "Beta Oxidation", "setting": "fatty acid oxidation; 25 ug/ml", "value": 75}, {"measurement": "Beta Oxidation", "setting": "fatty acid oxidation; 100 ug/ml", "value": 68}, {"measurement": "FAO MAx", "setting": "fatty acid oxidation", "value": 154, "unit": "%"}, {"measurement": "IC50", "setting": "[1]", "value": 23.2, "unit": "µg/mL"}]}
{"molecule": "C=CCC1(CC=C)C(=O)SC(C)(CCCCCCCC)C1=O", "note": "(racemic) [Compound 4, 3,3-Diallyl-5-methyl-5-octyl-thiophene-2,4-dione]", "values": [{"measurement": "Weight Loss", "setting": "Weight loss screen; day 1", "value": "7.9% and 8.0% and 6.8%"}, {"measurement": "IC50", "setting": "(O)", "value": "53.7 ± 1", "unit": "µg/mL"}, {"measurement": "Beta Oxidation", "setting": "fatty acid oxidation; 1.25 ug/ml", "value": "94 and 151"}, {"measurement": "Beta Oxidation", "setting": "fatty acid oxidation; 2.5 ug/ml", "value": "114 and 163"}, {"measurement": "Beta Oxidation", "setting": "fatty acid oxidation; 5 ug/ml", "value": "120 and 154 and 177"}, {"measurement": "Beta Oxidation", "setting": "fatty acid oxidation; 10 ug/ml", "value": "163 and 177 and 184"}, {"measurement": "Beta Oxidation", "setting": "fatty acid oxidation; 20 ug/ml", "value": 147}, {"measurement": "Beta Oxidation", "setting": "fatty acid oxidation; 40 ug/ml", "value": 101}, {"measurement": "IC50", "setting": "[1]", "value": "40.5 ± 14.8", "unit": "µg/mL"}]}
{"molecule": "C=CCC1(CC=C)C(=O)SC(C)(CCCCCCCCCC)C1=O", "note": "(stereo not drawn) [Compound 15, 3,3-Diallyl-5-methyl-5-decyl-thiophene-2,4-dione]", "values": [{"measurement": "Weight Loss", "setting": "Weight loss screen; day 2", "value": "60 mg/kg: 3.5% (day 2)"}, {"measurement": "IC50", "setting": "(O)", "value": "> 80", "unit": "µg/mL"}, {"measurement": "FAO MAx, concentration at maximum", "setting": "fatty acid oxidation", "value": 25, "unit": "µg/mL"}, {"measurement": "FAO SC 150", "setting": "fatty acid oxidation", "value": 16.0, "unit": "µg/mL"}, {"measurement": "Beta Oxidation", "setting": "fatty acid oxidation; 0.097 ug/ml", "value": 105}, {"measurement": "Beta Oxidation", "setting": "fatty acid oxidation; 0.39 ug/ml", "value": 114}, {"measurement": "Beta Oxidation", "setting": "fatty acid oxidation; 1.56 ug/ml", "value": 127}, {"measurement": "Beta Oxidation", "setting": "fatty acid oxidation; 6.25 ug/ml", "value": 138}, {"measurement": "Beta Oxidation", "setting": "fatty acid oxidation; 25 ug/ml", "value": 165}, {"measurement": "Beta Oxidation", "setting": "fatty acid oxidation; 100 ug/ml", "value": 150}, {"measurement": "FAO MAx", "setting": "fatty acid oxidation", "value": 165, "unit": "%"}, {"measurement": "IC50", "setting": "[1]", "value": 71.8, "unit": "µg/mL"}]}
